Data as given in patent US11173151B2, “Substituted triazole derivatives and uses thereof” (BAYER AKTIENGESELLSCHAFT, priority 2017, dated 2021).
Read-outs that look alike come from different tables or passages of the source.

Key:
human V1a receptor = target: T1, human V1a receptor (Homo sapiens, UniProt P37288); experiment: Cellular in vitro assay for determining vasopressin receptor activity, V1a receptor cell line (CHO, aequorin luminescence); type: cell-based; settings: for IC50: CHO cell line transfected with human V1a receptor, [Arg]-vasopressin at EC50 concentration, read-out: IC50 hV1a; for ratio IC50 hV2/hV1a: selectivity ratio IC50 hV2 / IC50 hV1a
T1 construct: expressed in transfected cells; host or cells: CHO K1 (ATCC), also stably transfected with a modified aequorin
In short: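 IC50 from inhibition of [Arg]-vasopressin (EC50 concentration)-evoked aequorin luminescence in CHO K1 cells, with 10-min compound pretreatment.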

human V2 receptor = target: T2, human V2 receptor (Homo sapiens, UniProt P30518); experiment: Cellular in vitro assay for determining vasopressin receptor activity, V2 receptor cell line (CHO, CRE-luciferase); type: cell-based; settings: CHO cell line transfected with human V2 receptor, [Arg8]-vasopressin at EC50 concentration, read-out: IC50 hV2
T2 construct: expressed in transfected cells; host or cells: CHO K1 (ATCC) expressing firefly luciferase under a CRE-responsive promoter
T2 sequence (P30518 whole entry): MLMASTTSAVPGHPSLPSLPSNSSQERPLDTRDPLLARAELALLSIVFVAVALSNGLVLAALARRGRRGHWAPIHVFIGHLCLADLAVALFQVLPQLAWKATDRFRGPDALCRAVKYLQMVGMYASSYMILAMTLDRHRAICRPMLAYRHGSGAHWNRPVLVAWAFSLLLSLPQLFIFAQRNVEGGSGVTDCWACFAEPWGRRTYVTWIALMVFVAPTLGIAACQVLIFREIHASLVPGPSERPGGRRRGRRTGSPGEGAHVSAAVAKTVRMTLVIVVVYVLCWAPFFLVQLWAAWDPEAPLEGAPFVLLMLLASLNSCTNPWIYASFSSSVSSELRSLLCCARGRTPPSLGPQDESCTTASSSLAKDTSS

T1 sequence (P37288 whole entry): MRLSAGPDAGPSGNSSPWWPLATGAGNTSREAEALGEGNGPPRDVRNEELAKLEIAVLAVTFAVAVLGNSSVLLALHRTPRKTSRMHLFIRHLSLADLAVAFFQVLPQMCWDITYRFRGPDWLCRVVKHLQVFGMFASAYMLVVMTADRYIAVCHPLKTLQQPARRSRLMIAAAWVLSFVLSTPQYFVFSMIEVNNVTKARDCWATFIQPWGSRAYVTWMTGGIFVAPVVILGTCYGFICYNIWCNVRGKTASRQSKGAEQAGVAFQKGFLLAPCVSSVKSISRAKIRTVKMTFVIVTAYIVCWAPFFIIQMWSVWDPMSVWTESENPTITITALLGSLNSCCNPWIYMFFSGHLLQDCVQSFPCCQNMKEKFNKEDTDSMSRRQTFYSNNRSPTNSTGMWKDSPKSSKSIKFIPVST

SMILES | IC50 (human V1a receptor) | ratio IC50 hV2/hV1a (human V1a receptor) | IC50 (human V2 receptor; 3 hours) | IC50 (human V2 receptor)
O=C(c1cccc(Cl)c1-n1cnc(Cn2nc(-c3ccc(Cl)cc3)n(C[C@H](O)C(F)(F)F)c2=O)n1)N1CCOC(C(F)(F)F)C1 (mixture of isomers) [Example 380, 5-(4-Chlorophenyl)-2-{[1-(2-chloro-6-{[2-(trifluoromethyl)morpholin-4-yl]carbonyl}phenyl)-1H-1,2,4-triazol-3-yl]methyl}-4-[(2S)-3,3,3-trifluoro-2-hydroxypropyl]-2,4-dihydro-3H-1,2,4-triazol-3-one] | 95.5 nM | 41.9 | 4 µM | –
O=C(c1cccc(Cl)c1-n1cnc(Cn2nc(-c3ccc(Cl)cc3)n(C[C@H](O)C(F)(F)F)c2=O)n1)N1CCC(C(F)(F)F)C1 (mixture of isomers) [Example 386, 5-(4-Chlorophenyl)-2-{[1-(2-chloro-6-{[3-(trifluoromethyl)pyrrolidin-1-yl]carbonyl}phenyl)-1H-1,2,4-triazol-3-yl]methyl}-4-[(2S)-3,3,3-trifluoro-2-hydroxypropyl]-2,4-dihydro-3H-1,2,4-triazol-3-one] | 170 nM | 24.4 | 4.15 µM | –
NC(CNC(=O)c1cccc(Cl)c1-n1cnc(Cn2nc(-c3ccc(Cl)cc3)n(C[C@H](O)C(F)(F)F)c2=O)n1)C(F)(F)F (mixture of isomers) [Example 390, N-[2-Amino-3,3,3-trifluoropropyl]-3-chloro-2-[3-({3-(4-chlorophenyl)-5-oxo-4-[(2S)-3,3,3-trifluoro-2-hydroxypropyl]-4,5-dihydro-1H-1,2,4-triazol-1-yl}methyl)-1H-1,2,4-triazol-1-yl]benzamide] | 69 nM | 7.7 | 0.53 µM | –

Other lines, results leading:

IC50 (human V1a receptor) | ratio IC50 hV2/hV1a (human V1a receptor) | IC50 (human V2 receptor; 3 hours) | IC50 (human V2 receptor) | SMILES
82 nM | 62.8 | 5.15 µM | – | O=C(NC1CC1(F)F)c1cccc(Cl)c1-n1cnc(Cn2nc(-c3ccc(Cl)cc3)n(C[C@@H](O)C(F)(F)F)c2=O)n1 (mixture of isomers) [Example 395, 3-Chloro-2-[3-({3-(4-chlorophenyl)-5-oxo-4-[(2R)-3,3,3-trifluoro-2-hydroxypropyl]-4,5-dihydro-1H-1,2,4-triazol-1-yl}methyl)-1H-1,2,4-triazol-1-yl]-N-[2,2-difluorocyclopropyl]benzamide]
570 nM | 56.1 | – | 32 µM | NC(=O)C1CCCN1C(=O)c1cccc(Cl)c1-n1cnc(Cn2nc(-c3ccc(Cl)cc3)n(C[C@@H](O)C(F)(F)F)c2=O)n1 (mixture of isomers) [Example 400, 1-{3-Chloro-2-[3-({3-(4-chlorophenyl)-5-oxo-4-[(2R)-3,3,3-trifluoro-2-hydroxypropyl]-4,5-dihydro-1H-1,2,4-triazol-1-yl}methyl)-1H-1,2,4-triazol-1-yl]benzoyl}-prolinamide]
26 nM | 390.4 | – | 10.1 µM | O=C(NC1CC1F)c1cccc(Cl)c1-n1cnc(Cn2nc(-c3ccc(Cl)cc3)n(C[C@@H](O)C(F)(F)F)c2=O)n1 (mixture of isomers) [Example 406, 3-Chloro-2-[3-({3-(4-chlorophenyl)-5-oxo-4-[(2R)-3,3,3-trifluoro-2-hydroxypropyl]-4,5-dihydro-1H-1,2,4-triazol-1-yl}methyl)-1H-1,2,4-triazol-1-yl]-N-[2-fluorocyclopropyl]benzamide]
400 nM | 21.3 | – | 8.5 µM | NC(CNC(=O)c1cccc(Cl)c1-n1cnc(Cn2nc(-c3ccc(Cl)cc3)n(C[C@@H](O)C(F)(F)F)c2=O)n1)C(F)(F)F (mixture of isomers) [Example 408, N-[2-Amino-3,3,3-trifluoropropyl]-3-chloro-2-[3-({3-(4-chlorophenyl)-5-oxo-4-[(2R)-3,3,3-trifluoro-2-hydroxypropyl]-4,5-dihydro-1H-1,2,4-triazol-1-yl}methyl)-1H-1,2,4-triazol-1-yl]benzamide]
